PubChem BioAssay AID292 (DTP/NCI, 2004)
Several values for one entry are separate records, joined by “and”; a condition that tells them apart may be missing. Equal entries are not always repeated. Toxic doses and inconclusive results are not listed.

Tested on: B6C3F1 mice, ip Sarcoma M5076, median survival T/C
Assay: NCI In Vivo Anticancer Drug Screen. Data for tumor model Sarcoma M5076 (intraperitoneal) in B6C3F1 mice
Conditions: endpoint: median survival time, higher = longer survival
Description: The antitumor activity of compounds was measured in mice bearing transplantable tumors. Survival or tumor size were measured and the results are expressed as the measurement made in the treated group (T) divided by the measurement made in the vehicle treated control group (C). The tumor model used in this assay is Sarcoma M5076 (intraperitoneal) in B6C3F1 mice

[1] = dose: 50.0 mg/kg/injection, schedule: Q04DX004 (ip), vehicle: saline
[2] = dose: 100.0 mg/kg/injection, schedule: Q04DX004 (ip), vehicle: saline
[3] = dose: 6.25 mg/kg/injection, schedule: Q04DX004 (ip), vehicle: saline with Tween-80
[4] = dose: 12.5 mg/kg/injection, schedule: Q04DX004 (ip), vehicle: saline with Tween-80
[5] = dose: 50.0 mg/kg/injection, schedule: Q04DX004 (ip), vehicle: Klucel (hydroxypropylcellulose) (HPC)
[6] = dose: 100.0 mg/kg/injection, schedule: Q04DX004 (ip), vehicle: Klucel (hydroxypropylcellulose) (HPC)
[7] = dose: 200.0 mg/kg/injection, schedule: Q04DX004 (ip), vehicle: Klucel (hydroxypropylcellulose) (HPC)
[8] = dose: 50.0 mg/kg/injection, schedule: Q04DX004 (ip), vehicle: saline with Tween-80
[9] = dose: 100.0 mg/kg/injection, schedule: Q04DX004 (ip), vehicle: water
[10] = dose: 25.0 mg/kg/injection, schedule: Q04DX004 (ip), vehicle: saline with Tween-80

N/C(=N/N=C/c1cc(Br)cc(Br)c1O)NO
T/C (dose: 25.0 mg/kg/injection, schedule: Q04DX004 (ip), vehicle: suspension in saline): 102 % of control
T/C (dose: 50.0 mg/kg/injection, schedule: Q04DX004 (ip), vehicle: suspension in saline): 98 % of control
T/C (dose: 100.0 mg/kg/injection, schedule: Q04DX004 (ip), vehicle: suspension in saline): 110 % of control

[Cl][Mn][Cl]
T/C (dose: 12.5 mg/kg/injection, schedule: Q04DX004 (ip), vehicle: saline): 96 % of control
T/C (dose: 25.0 mg/kg/injection, schedule: Q04DX004 (ip), vehicle: saline): 100 % of control
T/C [1]: 124 % of control
T/C [2]: 111 % of control

O=C(CSc1nnc(CSc2ccc(Cl)cc2)n1-c1ccccc1)NC(=O)Nc1ccccc1
T/C (dose: 4.69 mg/kg/injection, schedule: Q04DX004 (ip), vehicle: Klucel (hydroxypropylcellulose) (HPC)): 103 % of control
T/C (dose: 9.38 mg/kg/injection, schedule: Q04DX004 (ip), vehicle: Klucel (hydroxypropylcellulose) (HPC)): 102 % of control
T/C (dose: 18.75 mg/kg/injection, schedule: Q04DX004 (ip), vehicle: Klucel (hydroxypropylcellulose) (HPC)): 88 % of control
T/C (dose: 37.5 mg/kg/injection, schedule: Q04DX004 (ip), vehicle: Klucel (hydroxypropylcellulose) (HPC)): 88 % of control and 89 % of control

CC(=O)N1CCCN(C)/C1=N/[N+](=O)[O-]
T/C (dose: 37.5 mg/kg/injection, schedule: Q04DX004 (ip), vehicle: saline): 100 % of control
T/C (dose: 75.0 mg/kg/injection, schedule: Q04DX004 (ip), vehicle: saline): 104 % of control
T/C (dose: 150.0 mg/kg/injection, schedule: Q04DX004 (ip), vehicle: saline): 104 % of control
T/C (dose: 300.0 mg/kg/injection, schedule: Q04DX004 (ip), vehicle: saline): 100 % of control

COc1c(O)cc2c(c1OC)-c1ccc(SC)c(=O)cc1C(NC(C)=O)CC2 (stereo unspecified)
T/C (dose: 5.0 mg/kg/injection, schedule: Q04DX004 (ip), vehicle: Klucel (hydroxypropylcellulose) (HPC)): 154 % of control and 196 % of control
T/C (dose: 10.0 mg/kg/injection, schedule: Q04DX004 (ip), vehicle: Klucel (hydroxypropylcellulose) (HPC)): 235 % of control and 237 % of control

CO[C@@]12[C@@H]3N[C@@H]3CN1C1=C(C(=O)C(N3CCCC3)=C(C)C1=O)[C@@H]2COC(N)=O
T/C [3]: 269 % of control
T/C [4]: 183 % of control

COC1CC(C)C(OC)c2cc(O)cc(c2O)NC(=O)/C(C)=C/C=C\C(C)C(OC(N)=O)/C(C)=C\C(C)C1OC (stereo unspecified)
T/C (dose: 0.63 mg/kg/injection, schedule: Q01DX009 (ip), vehicle: saline + alcohol): 115 % of control
T/C (dose: 1.25 mg/kg/injection, schedule: Q01DX009 (ip), vehicle: saline + alcohol): 111 % of control
T/C (dose: 1.8 mg/kg/injection, schedule: Q01DX009 (ip), vehicle: saline + alcohol): 122 % of control
T/C (dose: 2.5 mg/kg/injection, schedule: Q01DX009 (ip), vehicle: saline + alcohol): 107 % of control

Clc1ccc(OCC(Cn2ccnc2)c2ccc(Cl)cc2)cc1 (stereo unspecified)
T/C (dose: 18.75 mg/kg/injection, schedule: Q04DX004 (ip), vehicle: saline with Tween-80): 115 % of control
T/C (dose: 37.5 mg/kg/injection, schedule: Q04DX004 (ip), vehicle: saline with Tween-80): 102 % of control
T/C (dose: 75.0 mg/kg/injection, schedule: Q04DX004 (ip), vehicle: saline with Tween-80): 101 % of control

CC(C)(C)NC(C1=CC(C)(C)c2ccccc2C1=O)c1ccccc1 (stereo unspecified)
T/C [5]: 103 % of control
T/C [6]: 101 % of control
T/C [7]: 110 % of control
T/C (dose: 400.0 mg/kg/injection, schedule: Q04DX004 (ip), vehicle: Klucel (hydroxypropylcellulose) (HPC)): 104 % of control

O=C(O)[C@H](Cc1ccccc1)N1C(=O)c2ccccc2C1=O
T/C (dose: 62.5 mg/kg/injection, schedule: Q04DX004 (ip), vehicle: DMSO): 92 % of control
T/C (dose: 125.0 mg/kg/injection, schedule: Q04DX004 (ip), vehicle: DMSO): 110 % of control
T/C (dose: 250.0 mg/kg/injection, schedule: Q04DX004 (ip), vehicle: DMSO): 100 % of control

CC[C@](C)(O)C(=O)O[C@H]1C(=O)O[C@@H]2C[C@H]3C(C)=CC(=O)[C@@H](O)[C@]3(C)[C@H]3[C@@]4(O)OC[C@]32[C@@H]1[C@@H](C)[C@H]4O
T/C (dose: 0.03 mg/kg/injection, schedule: Q04DX004 (ip), vehicle: saline): 102 % of control
T/C (dose: 0.06 mg/kg/injection, schedule: Q04DX004 (ip), vehicle: saline): 117 % of control
T/C (dose: 0.25 mg/kg/injection, schedule: Q04DX004 (ip), vehicle: saline): 100 % of control

O=c1[nH]c2cc3c(cc2n2cccc12)oc1ccccc13
T/C [8]: 90 % of control
T/C (dose: 100.0 mg/kg/injection, schedule: Q04DX004 (ip), vehicle: saline with Tween-80): 98 % of control
T/C (dose: 400.0 mg/kg/injection, schedule: Q04DX004 (ip), vehicle: saline with Tween-80): 90 % of control

O=C(O)CCCCCCCC(=O)O
T/C (dose: 75.0 mg/kg/injection, schedule: Q04DX004 (ip), vehicle: distilled water + Tween-80): 111 % of control
T/C (dose: 150.0 mg/kg/injection, schedule: Q04DX004 (ip), vehicle: distilled water + Tween-80): 99 % of control
T/C (dose: 300.0 mg/kg/injection, schedule: Q04DX004 (ip), vehicle: distilled water + Tween-80): 93 % of control

CC(=O)OCc1cc(-c2nc3ccccc3[nH]c2=O)nn1-c1ccc(Cl)cc1
T/C (dose: 6.25 mg/kg/injection, schedule: Q04DX004 (ip), vehicle: distilled water + alcohol): 95 % of control
T/C (dose: 12.5 mg/kg/injection, schedule: Q04DX004 (ip), vehicle: distilled water + alcohol): 91 % of control
T/C (dose: 25.0 mg/kg/injection, schedule: Q04DX004 (ip), vehicle: distilled water + alcohol): 88 % of control and 91 % of control
T/C (dose: 200.0 mg/kg/injection, schedule: Q04DX004 (ip), vehicle: distilled water + alcohol): 97 % of control

CC(=O)NO
T/C [9]: 97 % of control and 100 % of control and 105 % of control
T/C (dose: 200.0 mg/kg/injection, schedule: Q04DX004 (ip), vehicle: water): 101 % of control and 103 % of control and 104 % of control
T/C (dose: 400.0 mg/kg/injection, schedule: Q04DX004 (ip), vehicle: water): 107 % of control and 109 % of control
T/C (dose: 800.0 mg/kg/injection, schedule: Q04DX004 (ip), vehicle: water): 106 % of control and 108 % of control
T/C (dose: 1600.0 mg/kg/injection, schedule: Q04DX004 (ip), vehicle: water): 113 % of control and 115 % of control

CCCCNP1(NCCCC)=NP(NCCCC)(NCCCC)=NP(NCCCC)(NCCCC)=NP(NCCCC)(NCCCC)=N1
T/C (dose: 3.13 mg/kg/injection, schedule: Q04DX004 (ip), vehicle: saline with Tween-80): 96 % of control
T/C [3]: 104 % of control
T/C [4]: 102 % of control
T/C [10]: 96 % of control
T/C [8]: 97 % of control

CC1C(C#N)C(=O)NC(=O)C1C#N (stereo unspecified)
T/C [1]: 100 % of control
T/C [2]: 104 % of control
T/C (dose: 200.0 mg/kg/injection, schedule: Q04DX004 (ip), vehicle: saline): 97 % of control
T/C (dose: 400.0 mg/kg/injection, schedule: Q04DX004 (ip), vehicle: saline): 97 % of control
T/C (dose: 800.0 mg/kg/injection, schedule: Q04DX004 (ip), vehicle: saline): 102 % of control

CN(C)CCCOc1nc2c(c(=O)n(C)c(=O)n2C)n1C (tested in a mixture with another compound)
T/C [5]: 169 % of control and 182 % of control
T/C [6]: 163 % of control and 197 % of control
T/C [7]: 208 % of control and 267 % of control

CC1[C@@H]2CC=C3[C@H]4CCC5Cc6nc7c(nc6C[C@@]5(C)C4CC(=O)[C@]32CO[C@]12OC(C)(C)CC2O)CC1CC[C@@H]2C3=C[C@H]4O[C@@]5(O[C@@](C)(CO)C[C@@H]5O)C(C)[C@@]4(O)[C@]3(C)[C@@H](O)CC2[C@]1(C)C7 (stereo partly specified)
T/C (dose: 12.5 micrograms/kg/injection, schedule: Q04DX004 (ip), vehicle: saline + alcohol): 98 % of control
T/C (dose: 25.0 micrograms/kg/injection, schedule: Q04DX004 (ip), vehicle: saline + alcohol): 94 % of control
T/C (dose: 50.0 micrograms/kg/injection, schedule: Q04DX004 (ip), vehicle: saline + alcohol): 102 % of control
T/C (dose: 100.0 micrograms/kg/injection, schedule: Q04DX004 (ip), vehicle: saline + alcohol): 103 % of control and 107 % of control
T/C (dose: 200.0 micrograms/kg/injection, schedule: Q04DX004 (ip), vehicle: saline + alcohol): 114 % of control

C/C(=N\NC(=S)N1CC2CCC(CC2)C1)c1cccc(C)n1
T/C [3]: 104 % of control and 107 % of control
T/C [4]: 101 % of control and 106 % of control and 116 % of control
T/C [10]: 104 % of control and 110 % of control and 115 % of control
T/C [8]: 101 % of control and 107 % of control and 119 % of control

COC(=O)Nc1cccc(-c2nc3ccc(NC(=O)OC)cc3c(=O)n2-c2ccccc2)c1
T/C (dose: 133.0 mg/kg/injection, schedule: Q04DX004 (ip), vehicle: Klucel (hydroxypropylcellulose) (HPC)): 167 % of control

CN(C)CCOc1cccc2c1C(=O)c1ccccc1C2=O
T/C (dose: 50.0 mg/kg/injection, schedule: Q04DX004 (ip), vehicle: water): 90 % of control
T/C [9]: 97 % of control
